Among the test systems are 786-0 renal; SK-MEL-5 melanoma; CCRF-CEM leukemia; HOP-62 NSCLC; UACC-257 melanoma; HS 578T breast; T-47D breast; SF-268 CNS; A549 NSCLC; HCT-116 colon.
Common to all, as to experiment: NCI anticancer screen, dose series, 48 h

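Tested at 5 concentrations; 48 h exposure; 96-well plates; endpoints linearly interpolated, else capped at highest concentration. At the GI50, growth is halved. TGI: concentration producing complete growth inhibition.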

Consider 3 compounds from PubChem BioAssay (NCI).

On to `COc1cc(/C=C/c2cc(/C=C/c3ccc(O)c(OC)c3)n(C(=O)Nc3ccc(F)cc3)n2)ccc1O`, for which the GI50 in the experiment with 786-0 renal was 1080 nM; in the experiment with SK-MEL-5 melanoma, 418 nM; with CCRF-CEM leukemia, 367 nM; in the experiment with HOP-62 NSCLC it was 1.07 µM; in the experiment with UACC-257 melanoma, 2170 nM; with HS 578T breast, 689 nM. Moreover, the GI50 was 2400 nM in the experiment with T-47D breast, 602 nM with SF-268 CNS, 2.44 µM in the experiment with A549 NSCLC and 422 nM in the experiment on HCT-116 colon. Also, the TGI in the experiment on 786-0 renal stood at 6.8 µM; in the experiment with SK-MEL-5 melanoma it was 3.25 µM; with CCRF-CEM leukemia, 9.57 µM; with HOP-62 NSCLC, 9.36 µM; in the experiment with UACC-257 melanoma, 9.12 µM; in the experiment with HS 578T breast, 6.11 µM. The TGI in the experiment with T-47D breast stood at 9.99 µM; in the experiment on SF-268 CNS, 10 µM; in the experiment with A549 NSCLC it was 18.3 µM; in the experiment with HCT-116 colon, 10.3 µM.
Turning to `Cc1cc(=O)[nH]c2cc3oc4ccccc4c3cc12`, the TGI with 786-0 renal is more than 81.8 µM; with SK-MEL-5 melanoma it was more than 100 µM; in the experiment on CCRF-CEM leukemia, more than 75.9 µM; in the experiment with HOP-62 NSCLC, more than 100 µM; in the experiment with UACC-257 melanoma it was more than 100 µM; with HS 578T breast, more than 100 µM. Moreover, the TGI in the experiment on T-47D breast is more than 100 µM; in the experiment on SF-268 CNS, more than 93.7 µM; with A549 NSCLC, more than 100 µM; with HCT-116 colon it was more than 100 µM.
With `CC(C)c1ccc(C(C)C(=O)N(CC2=C(C(C)c3ccccn3)c3ccccc3C2)C(C)C)cc1` (stereo not given), the GI50 was 3140 nM in the experiment with 786-0 renal; 1970 nM in the experiment on SK-MEL-5 melanoma; 3250 nM with CCRF-CEM leukemia; 5.26 µM in the experiment with HOP-62 NSCLC; 3430 nM with UACC-257 melanoma; 1840 nM in the experiment on HS 578T breast. In addition, the GI50 is 2940 nM in the experiment with T-47D breast, 4620 nM in the experiment on SF-268 CNS, 3.85 µM in the experiment on A549 NSCLC and 1940 nM in the experiment with HCT-116 colon. For the same compound, the TGI in the experiment with 786-0 renal is 11.5 µM; in the experiment on SK-MEL-5 melanoma, 4.62 µM; in the experiment with CCRF-CEM leukemia, 22 µM; in the experiment with HOP-62 NSCLC, more than 100 µM; in the experiment with UACC-257 melanoma, 38.3 µM; in the experiment with HS 578T breast it was 13.6 µM. In addition, the TGI is more than 100 µM in the experiment on T-47D breast, more than 100 µM in the experiment on SF-268 CNS, more than 100 µM with A549 NSCLC and 8.02 µM in the experiment with HCT-116 colon.
